Assay results from PubChem BioAssay (NCI).
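Exposure lasted 48 hours, with cells grown in 96-well plates and compounds tested at five concentrations. Abbreviation: GI50, concentration required for 50% inhibition of growth. Definition used: TGI = concentration required for complete inhibition of growth.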

Columns and labels:
Test in all cases: DTP human tumour cell line panel, 48 h
A549 NSCLC = test system: A549 NSCLC
SK-OV-3 ovarian = test system: SK-OV-3 ovarian
SNB-19 CNS = test system: SNB-19 CNS
SN12C renal = test system: SN12C renal
DU-145 prostate = test system: DU-145 prostate
MCF7 breast = test system: MCF7 breast
HS 578T breast = test system: HS 578T breast
COLO 205 colon = test system: COLO 205 colon
KM12 colon = test system: KM12 colon
CCRF-CEM leukemia = test system: CCRF-CEM leukemia

## Cc1ccc2c(c1)O/C(=C\c1ccc([N+](=O)[O-])o1)C2=O
A549 NSCLC
  GI50: 2.74 µM
  TGI: 8.53 µM
SK-OV-3 ovarian
  GI50: 4.66 µM
  TGI: > 100 µM
SNB-19 CNS
  GI50: 3.98 µM
  TGI: 21.6 µM
SN12C renal
  GI50: 1.92 µM
  TGI: 4.96 µM
DU-145 prostate
  GI50: 2.25 µM
  TGI: 6.4 µM
MCF7 breast
  GI50: 0.432 µM
  TGI: 2.01 µM
HS 578T breast
  GI50: 2.09 µM
  TGI: 6.25 µM
COLO 205 colon
  GI50: 1.43 µM
  TGI: 3.28 µM
KM12 colon
  GI50: 1.7 µM
  TGI: 3.4 µM
CCRF-CEM leukemia
  GI50: 0.424 µM
  TGI: 2.61 µM

## C1=C(c2ccccc2)SC=C(c2ccccc2)S1
A549 NSCLC
  TGI: > 100 µM
SK-OV-3 ovarian
  TGI: > 100 µM
SNB-19 CNS
  TGI: > 100 µM
SN12C renal
  TGI: > 100 µM
DU-145 prostate
  TGI: > 100 µM
MCF7 breast
  TGI: 48.2 µM
HS 578T breast
  TGI: > 100 µM
COLO 205 colon
  TGI: > 100 µM
KM12 colon
  TGI: > 100 µM
CCRF-CEM leukemia
  TGI: > 100 µM

## Oc1c(I)cc(-c2nc3ccccc3s2)cc1CN(Cc1ccccn1)Cc1ccccn1
A549 NSCLC
  GI50: 0.427 µM
  TGI: > 100 µM
SK-OV-3 ovarian
  GI50: 0.437 µM
  TGI: > 100 µM
SNB-19 CNS
  GI50: 0.387 µM
  TGI: > 100 µM
SN12C renal
  GI50: 0.446 µM
  TGI: 11.6 µM
DU-145 prostate
  GI50: 0.616 µM
  TGI: > 100 µM
MCF7 breast
  GI50: 0.34 µM
  TGI: 35 µM
HS 578T breast
  GI50: 1.61 µM
  TGI: 93 µM
COLO 205 colon
  GI50: 0.352 µM
  TGI: 20.7 µM
KM12 colon
  GI50: 0.4 µM
  TGI: 17.4 µM
CCRF-CEM leukemia
  GI50: 0.35 µM
  TGI: > 100 µM

## CCOC(=O)N[C@H]1CCc2c(Br)c(OC)c(OC)c(OC)c2-c2ccc(SC)c(=O)cc21
A549 NSCLC
  GI50: < 0.0184 µM
  TGI: > 43 µM
SK-OV-3 ovarian
  GI50: < 0.01 µM
  TGI: 59.4 µM
SNB-19 CNS
  GI50: < 0.01 µM
  TGI: 26.5 µM
SN12C renal
  GI50: < 0.0178 µM
  TGI: 19.8 µM
DU-145 prostate
  GI50: < 0.01 µM
  TGI: 0.125 µM
MCF7 breast
  GI50: < 0.01 µM
  TGI: 12.7 µM
HS 578T breast
  GI50: < 0.01 µM
  TGI: 37.3 µM
COLO 205 colon
  GI50: < 0.01 µM
  TGI: 0.0161 µM
KM12 colon
  GI50: < 0.01 µM
  TGI: 3.79 µM
CCRF-CEM leukemia
  GI50: < 0.01 µM
  TGI: > 42 µM

## COc1cc(-c2cc(/C=C3\C(=O)Nc4ccccc43)[nH]n2)cc(OC)c1OC
A549 NSCLC
  GI50: 3.36 µM
  TGI: 13 µM
SK-OV-3 ovarian
  GI50: 5 µM
  TGI: 26.7 µM
SNB-19 CNS
  GI50: 4.13 µM
  TGI: 32.5 µM
SN12C renal
  GI50: 3.58 µM
  TGI: 14.5 µM
DU-145 prostate
  GI50: 4.35 µM
  TGI: 15.1 µM
MCF7 breast
  GI50: 2.77 µM
  TGI: 11 µM
HS 578T breast
  GI50: 5.43 µM
  TGI: 62.8 µM
COLO 205 colon
  GI50: 2.47 µM
  TGI: 7.02 µM
KM12 colon
  GI50: 1.26 µM
  TGI: 10.7 µM
CCRF-CEM leukemia
  GI50: 2.28 µM
  TGI: 6.96 µM

## COc1ccc(/C=C(/C)[N+](=O)[O-])cc1
A549 NSCLC
  TGI: 18.2 µM
SK-OV-3 ovarian
  TGI: 17.9 µM
SNB-19 CNS
  TGI: 17.9 µM
SN12C renal
  TGI: 4.62 µM
DU-145 prostate
  TGI: 6.26 µM
MCF7 breast
  TGI: 2.51 µM
HS 578T breast
  TGI: 27.3 µM
COLO 205 colon
  TGI: 4.3 µM
KM12 colon
  TGI: 3.32 µM
CCRF-CEM leukemia
  TGI: 4.48 µM
